From patent US20080176952A1, “Management of Ophthalmologic Disorders, Including Macular Degeneration” (priority 2004, published 2008)

Assays:
[1] = target: T1, RPE65 (Bos taurus, UniProt Q28175); assay: Competitive binding with 3H-all-trans-retinyl palmitate to RPE65 (buffer exchange); parameters: species or system bovine; conditions: 6 μM retinoic acid, 0.5 μM RPE65, 0.65 μM 3H-all-trans-retinyl palmitate
T1 construct: Frozen bovine eyecups devoid of retinas were purchased from W. L. Lawson Co; tissue W. L. Lawson Co; host or cells: bovine eyecups (retinal pigment epithelium)
Description: Competitive binding of retinoic acid (all-trans and 13-cis) and all-trans-retinyl palmitate to RPE65: Buffer exchange experiments were performed to investigate the abilities of the retinoic acids (all-trans and 13-cis) to displace all-trans-retinyl palmitate binding from RPE65. To RPE65 (0.5 μM) (PBS, 1% CHAPS, pH 7.4), was added 6 μM of retinoic acid (all-trans and 13-cis) and incubated at 4° C. for 30 min. A control sample of RPE65 was incubated minus retinoic acids at 4° C. for 30 min. At the end of this incubation, the samples were incubated for 30 min with ^3H-all-trans-retinyl palmitate (0.65 ∥M, 20.31. Ci/mmol). At the end of this incubation period the buffer (PBS-1% CHAPS) was exchanged 10^4 fold with a Centricon 30K MWCO filter. The sample retained and the buffer flow through were counted on a liquid scintillation counter, to measure the amount of ^3H-all-trans-retinyl palmitate retained.
Competitive binding of retinoic acid (all-trans and 13-cis) and all-trans-retinyl palmitate to RPE65: Buffer exchange experiments were performed to investigate the abilities of the retinoic acids (all-trans and 13-cis) to displace all-trans-retinyl palmitate binding from RPE65. […] The sample retained and the buffer flow through were counted on a liquid scintillation counter, to measure the amount of ^3H-all-trans-retinyl palmitate retained. […]

[2] = test system: 11-cis-retinol biosynthesis (IMH activity) in retinal pigment epithelial membrane system; assay: Effect on 11-cis-retinol biosynthesis (IMH activity) in RPE membranes; assay type: biochemical, bovine; conditions: membranes pre-incubated with vitamin A before inhibitor; 60 μM; data not shown
Description: A control reaction mixture without any inhibitor was also incubated at room temperature for 15 min. At the end of the min incubation, all-trans-retinol [11-12-^3H2] (0.2 μM) was added to the reaction mixtures (100 mM Tris pH 8.0, […] of RPE protein, 0.2% BSA 100 μM of DPPC, 1 mM of DTT and 0.2 μM all-trans-retinol [11-12-^3H2]) and incubated at room temperature for 30 min. At the end of this 30 minutes of incubation, an aliquot of the reactions were quenched to verify the equal addition of all-trans-retinol [11,12-^3H2] and the effect of these inhibitors on LRAT. After this the control reaction mixture was incubated with atRA (60 & 6 μM), 13cRA (60 & 6 μM) or 4-HPR (60 & 6 μM) for 15 min. Now all the reaction mixtures were incubated with 30 μM of apo-rCRALBP (100 mM Tris pH 8.0, 7.7 μg of RPE protein, 0.2% BSA 100 μM of DPPC, 1 mM of DTT 30 μM apo-rCRALBP and 0.2 μM all-trans-retinol [11-12-^3H2]) at 37° C. for 30 minutes. At the end of this incubation period the 200 μL reaction mixture was quenched by the addition of 750 μL ice cold methanol after which 100 μL of 1M sodium chloride solution was added, and 500 μl hexane (containing butylated hydroxy toluene at 1 mg/mL) was added to effect extraction of the retinoids. The retinoids were analyzed as previously described (27). The amount of 11-cis-retinol formed was used as a measurement of IMH activity. All experiments were performed in triplicate and the average values of these measurements were used for analysis.
A control reaction mixture without any inhibitor was also incubated at room temperature for 15 min. At the end of the min incubation, all-trans-retinol [11-12-^3H2] (0.2 μM) was added to the reaction mixtures (100 mM Tris pH 8.0, 76.7 μg of RPE protein, 0.2% BSA 100 μM of DPPC, 1 mM of DTT and 0.2 μM all-trans-retinol [11-12-^3H2]) and incubated at room temperature for 30 min. […] The retinoids were analyzed as previously described (27). […]

[3] = target: T2, tLRAT (Homo sapiens, UniProt O95237); conditions: comparison value; no observable turnover under the same conditions; read-out: KM as acyl donor in the LRAT reaction; cited from earlier work
T2 construct: This form of LRAT has the two N and C-terminal transmembrane domains of LRAT truncated; made in house
T2 sequence (O95237 31-196 limits assumed): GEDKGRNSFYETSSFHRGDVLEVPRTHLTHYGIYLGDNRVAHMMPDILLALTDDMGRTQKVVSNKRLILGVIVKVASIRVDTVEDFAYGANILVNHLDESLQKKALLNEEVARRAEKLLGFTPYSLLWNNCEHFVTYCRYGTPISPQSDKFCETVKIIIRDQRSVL

[4] = target: T2, tLRAT; assay: Isomeric preference of the mRPE65/tLRAT mediated esterification of retinols; assay type: biochemical; conditions: compared to vitamin A; 0.02 μM mRPE65, 5 μM tLRAT
Description: Isomeric preference of the mRPE65/tLRAT mediated esterification of retinols: The effect of mRPE65 on the processing of 11-cis- and all-trans-retinols was determined by monitoring the formation of tLRAT catalyzed retinyl esters from added all-trans-retinol [11,12-^3H2], 11-cis-retinol [15-^3H] and mRPE65. The reaction mixture (volume 0.1 mL) contains 100 mM Tris (pH 8.4), 5 μM of tLRAT 0.3% CHAPS, 1 mM dithiothreitol and 0.2 μM of all-trans-retinol [11,12-^3H2] or 11-cis-retinol [15-^3H] and mRPE65 ([…] 200 μM/0.4% DPPC/BSA was incubated for 10 min at room temperature. After 10 min the reaction was quenched with 500 μL methanol, 100 μL of water and 500 μL of hexane. The amount of retinyl palmitate formed, as determined by normal phase-HPLC, was used as a measure of activity. Each experiment was done in triplicate, and the data points used are an average of these three points. The standard error was presented as error bars.
11-cis-retinol, the direct product of IMH action, is also esterified (FIG. 12A). […] (2) all-trans-retinol (2 μM) and mRPE65 (0.02 μM). (3) 11-cis-retinol (2 μM) and DPPC/BSA (250 μM/0.4%). (4) all-trans-retinol (2 μM) and DPPC/BSA (250 μM/0.4%). All reaction mixtures contain 100 mM Tris pH 8.4, 1 mM dithiothreitol, 1 mM EDTA and 5 μM tLRAT.

[5] = test system: mRPE65 / IMH activity in RPE membranes; assay: Effect of 11-cis-retinol mediated depalmitoylation of mRPE65 on generation of 11-cis-retinol in RPE membranes; assay type: biochemical, bovine; conditions: RPE membranes pretreated with 10 μM, then UV and vitamin A
Description: Effect of 11-cis-retinol mediated depalmitoylation of mRPE65 on the generation of 11-cis-retinol: To 1 mL of buffered suspension of RPE membranes (100 mM Tris pH 8.0, 80 μg of protein) was added 10 μM of 11-cis-retinol and incubated at room temp. for 45 min. A control reaction mixture without 11-cis-retinol was also incubated at room temperature for 45 min. At the end of the 45 min incubation, the reaction mixtures were exposed to UV light (354 nm) for 10 min to destroy the 11-cis-retinoids. All-trains-retinol [11-12-^3H2] (0.1 μM) was then added to the reaction mixtures (100 mM Tris pH 8.0, 80 μg of RPE protein 5% BSA and 0.1 μM all-trans-retinol [11-12-^3H2], and incubated at 37° C. 100 μL aliquot of the reactions were quenched after 0, 5, 10, 15, 20, 30, 45, 60, 90, 120 and 150 min by the addition of 500 μL methanol after which 100 μL of H2O was added, and 500 μl hexane (containing butylated hydroxy toluene at 1 mg/mL) was added to effect extraction of the retinoids. The retinoids were analyzed as previously described (Winston and Rando 1998). The amount of 11-cis-retinol formed was used as a measurement of IMH activity. All experiments were performed in triplicate and the average values of these measurements were used for analysis. […]

T1 sequence (Q28175 whole entry): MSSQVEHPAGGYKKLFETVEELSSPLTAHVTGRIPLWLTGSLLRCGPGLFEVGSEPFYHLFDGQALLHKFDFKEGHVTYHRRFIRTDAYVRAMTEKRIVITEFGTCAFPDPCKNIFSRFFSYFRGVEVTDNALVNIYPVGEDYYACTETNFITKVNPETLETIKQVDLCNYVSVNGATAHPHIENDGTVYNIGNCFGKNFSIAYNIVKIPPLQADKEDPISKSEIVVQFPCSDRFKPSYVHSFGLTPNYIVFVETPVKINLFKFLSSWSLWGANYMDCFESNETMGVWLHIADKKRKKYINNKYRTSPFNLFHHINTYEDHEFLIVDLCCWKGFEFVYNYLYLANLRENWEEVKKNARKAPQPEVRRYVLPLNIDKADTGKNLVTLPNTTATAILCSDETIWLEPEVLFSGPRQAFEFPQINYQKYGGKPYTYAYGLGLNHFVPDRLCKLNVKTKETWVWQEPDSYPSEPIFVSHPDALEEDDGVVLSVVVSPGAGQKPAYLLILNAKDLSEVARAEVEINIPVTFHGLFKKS

CC1=C(/C=C/C(C)=C/C=C/C(C)=C/C(=O)O)C(C)(C)CCC1 [all-trans-retinoic acid]
competition with 3H-all-trans-retinyl palmitate binding to RPE65 [1]: competes with the binding | inhibition of 11-cis-retinol formation [2]: not susceptible to inhibition

CCCCCCCCCCCCCCCC(=O)OC[C@H](COP(=O)([O-])OCC[N+](C)(C)C)OC(=O)CCCCCCCCCCCCCCC [DPPC, dipalamitoyl phosphatidylcholine]
Km [3]: 1400 nM

CC1=C(/C=C/C(C)=C/C=C\C(C)=C\CO)C(C)(C)CCC1 [11-cis-retinol]
substrate preference in tLRAT/mRPE65 mediated esterification (palmitoylation) [4]: superior substrate | effect of pretreatment on 11-cis-retinol synthesis [5]: distinct lag period before product synthesis occurs
